Measured values from publication doi:10.1101/2024.08.25.609621 (bioRxiv, 2024).
Like-named read-outs stand apart in the source and are kept apart here.

Molecular target: SARS-CoV-2 NSP3 macrodomain (Mac1), P43 crystal form (Severe acute respiratory syndrome coronavirus 2, UniProt P0DTD1)
Type: binding
Conditions: for 1-BDC: PanDDA background density correction; for Total number of conformations: ligand conformations modeled in Mac1 crystal structure; for X-ray crystallography: Binding site: site where the ligand is bound in the X-ray crystal structure
[1] = X-ray crystal structure determined (TRUE)
[2] = crystal soak 10 mM, P43 crystals
[3] = occupancy estimate from PanDDA 1-BDC
[4] = site of ligand in X-ray crystal structure
[5] = TRUE = crystal structure with ligand determined
[6] = crystal soak concentration 20 mM
[7] = crystal soak concentration 20 mM, event 1
[8] = crystal soak concentration 20 mM, P43 crystals
[9] = crystal soak, soak concentration 10 mM, P43 crystals, TRUE = ligand-binding event identified
[10] = crystal soak, soak concentration 10 mM
[11] = crystal soak, soak concentration 10 mM, event 1
[12] = crystal soak, soak concentration 10 mM, TRUE = ligand modeled
[13] = site of Mac1 where ligand bound in crystal structure
[14] = crystal soak, soak concentration 10 mM, TRUE = ligand hit
[15] = crystal soak concentration 10 mM, P43 crystals
[16] = crystal soak concentration 10 mM
[17] = crystal soak 10 mM, TFA/DMSO background map

Compound | 1-BDC | X-ray crystal structure [1] | Pandda run, overall: Hit [2] | PanDDA run, DMSO background map: 1-BDC (crystal soak 10 mM) | PanDDA run, DMSO background map: Hit (crystal soak 10 mM) | Total number of conformations | 2*(1-BDC) (%) [3] | Binding site [4] | Pandda run, overall: Modeled [10] | Pandda run, overall: Hit [14] | X-ray crystallography: Binding site | PanDDA run, DMSO background map: 1-BDC (soak concentration 10 mM) | PanDDA run, DMSO background map: Hit (soak concentration 10 mM) | further results
OCC(Nc1ncnc2[nH]ccc12)C1CCOC1 (centres unmarked) [AVI-3679] | 0.16 | TRUE | TRUE | 0.16 | TRUE | 1 | 32% | Adenosine |  |  |  |  |  | Pandda run, overall: Modeled [2]: TRUE
CC1CC(C(=O)O)CCN1C(=O)c1ccc2c(c1)NC(=O)CO2 (centres unmarked) [AVI-303] | 0.13 |  |  |  |  | 1 | 26% |  |  |  |  |  |  | X-ray crystal structure [5]: TRUE; PanDDA run, DMSO background map: Hit [6]: TRUE; PanDDA run, DMSO background map: 1-BDC [7]: 0.19; Pandda run, overall: Hit [8]: TRUE; Pandda run, overall: Modeling comment [8]: Duplicate, not modeled; Pandda run, overall: Hit [9]: TRUE; PanDDA run, DMSO background map: Hit [10]: TRUE; PanDDA run, DMSO background map: Modeled [10]: TRUE; PanDDA run, DMSO background map: 1-BDC [11]: 0.13; Pandda run, overall: Modeled [12]: TRUE; Binding site [13]: Adenosine
O=C(O)C1CCCN1S(=O)(=O)c1cccc2nsnc12 (centres unmarked) [AVI-2] | 0.2 |  |  |  |  | 1 | 40% |  |  |  |  |  |  | X-ray crystal structure [5]: TRUE; PanDDA run, DMSO background map: Hit [6]: TRUE; PanDDA run, DMSO background map: 1-BDC [7]: 0.22; Pandda run, overall: Hit [8]: TRUE; Pandda run, overall: Modeling comment [8]: Duplicate, not modeled; Pandda run, overall: Modeling comment [10]: DMSO; Pandda run, overall: Hit [9]: TRUE; PanDDA run, DMSO background map: Hit [10]: TRUE; PanDDA run, DMSO background map: Modeled [10]: TRUE; PanDDA run, DMSO background map: 1-BDC [11]: 0.2; Pandda run, overall: Modeled [12]: TRUE; Binding site [13]: Adenosine
CC1(C)CCC(CO)N(c2ncnc3[nH]ccc23)C1 (centres unmarked) [AVI-3726] | 0.17 |  |  |  |  | 3 | 34% |  | TRUE | TRUE | Adenosine | 0.17 | TRUE | 
O=C(O)C(F)(F)F.OC[C@H]1CC2(CN1c1ncnc3[nH]ccc13)OCCO2 [AVI-3702] | 0.21 |  |  |  |  | 1 | 42% |  | TRUE | TRUE | Adenosine | 0.21 | TRUE | 
OCC(O)C1CCCN1c1ncnc2[nH]ccc12 (centres unmarked) [AVI-3701] | 0.18 |  |  |  |  | 1 | 36% |  | TRUE | TRUE | Adenosine | 0.18 | TRUE | 
CC(C)(C)C1CCC(CO)N(c2ncnc3[nH]ccc23)C1 (centres unmarked) [AVI-3719] | 0.08 |  |  |  |  | 1 | 16% |  | TRUE | TRUE | Adenosine | 0.08 | TRUE | Phe132 loop open state (TRUE = open state of Phe132 loop modeled): TRUE
OCC1COCCN1c1ncnc2[nH]ccc12 (centres unmarked) [AVI-3717] | 0.14 |  |  |  |  | 2 | 28% |  | TRUE | TRUE | Adenosine | 0.14 | TRUE | 
CC(O)C(C)Nc1ncnc2[nH]ccc12 (centres unmarked) [AVI-5158] | 0.17 | TRUE |  |  |  | 2 |  | Adenosine |  |  |  |  |  | Occupancy difference (refined_occupancy - 2*(1-BDC)): 0; Refined ligand occupancy (%): 34%; PanDDA run, DMSO background map: 1-BDC (event 1): 0.17; 2*(1-BDC) (%) (occupancy estimate from PanDDA BDC): 34%
Cc1ccccc1CC(CO)Nc1ncnc2[nH]ccc12 (centres unmarked) [AVI-3674] | 0.19 | TRUE | TRUE | 0.19 | TRUE | 1 | 38% | Adenosine |  |  |  |  |  | Pandda run, overall: Modeled [2]: TRUE
CN(C)C[C@@]1(O)CCCN(c2ncnc3[nH]ccc23)C1 [AVI-614] |  |  |  |  |  |  |  |  |  | TRUE |  | 0.17 | TRUE | Pandda run, overall: Modeling comment [10]: Weak density, not modeled
OCC(CC1CCCO1)Nc1ncnc2[nH]ccc12 (centres unmarked) [AVI-3660] | 0.23 | TRUE | TRUE | 0.23 | TRUE | 1 | 46% | Adenosine |  |  |  |  |  | Pandda run, overall: Modeled [2]: TRUE
OCC(CC1CC1)Nc1ncnc2[nH]ccc12 (centres unmarked) [AVI-3662] | 0.14 | TRUE | TRUE | 0.14 | TRUE | 1 | 28% | Adenosine |  |  |  |  |  | Pandda run, overall: Modeled [2]: TRUE; Pandda run, overall: Modeling comment [2]: Distal site, weak density, not modeled
CC1CCN(C(=O)c2ccc3c(c2)nc(CO)n3C)CC1C(=O)O (centres unmarked) [AVI-348] | 0.25 |  |  |  |  | 1 | 50% |  |  |  |  |  |  | X-ray crystal structure [5]: TRUE; PanDDA run, DMSO background map: 1-BDC (crystal soak concentration 10 mM, event 1): 0.25; Pandda run, overall: Hit [15]: TRUE; Pandda run, overall: Modeled [15]: TRUE; PanDDA run, DMSO background map: Hit [16]: TRUE; PanDDA run, DMSO background map: Modeled [16]: TRUE; PanDDA run, DMSO background map: Hit [6]: TRUE; PanDDA run, DMSO background map: 1-BDC [7]: 0.34; Pandda run, overall: Hit [8]: TRUE; Pandda run, overall: Modeling comment [8]: Duplicate, not modeled; Binding site [13]: Adenosine
OCC(CC1CCCCC1)Nc1ncnc2[nH]ccc12 (centres unmarked) [AVI-3690] | 0.12 | TRUE | TRUE | 0.12 | TRUE | 1 | 24% | Adenosine |  |  |  |  |  | Pandda run, overall: Modeled [2]: TRUE; Pandda run, overall: Modeling comment [2]: Weak density for alternative ligand conformation
OCC1CC2(CCOCC2)CN1c1ncnc2[nH]ccc12 (centres unmarked) [AVI-3707] | 0.21 |  |  |  |  | 1 | 42% |  | TRUE | TRUE | Adenosine | 0.21 | TRUE | Pandda run, overall: Modeling comment [10]: Distal site, weak density, not modeled
O=C(O)C(F)(F)F.OCC(Nc1ncnc2[nH]ccc12)C(O)C1CCCCC1 (centres unmarked) [AVI-3687] |  |  | TRUE | 0.15 | TRUE |  |  |  |  |  |  |  |  | Pandda run, overall: Modeling comment [2]: Weak density, not modeled; PanDDA run, TFA/DMSO background map: 1-BDC [17]: 0.08; PanDDA run, TFA/DMSO background map: Hit [17]: TRUE
